The numbers were not newly measured in paper PMC9486541, “Design, synthesis and cytotoxic evaluation of novel betulonic acid-diazine derivatives as potential antitumor agents” (Frontiers in Chemistry, 2022), which cites them from elsewhere.

SMILES strings stand for the structures.

Some test systems named below: HCT-116 cells; DLD-1 cells; SW872.
What all share (set-up): method as in list in b5
Common to all, as to conditions: Figure 1, representative BoA derivatives; ref list in b5; cited from earlier work

For `C=C(C)C1CCC2(C(=O)O)CCC3(C)C(CCC4C5(C)CC(=Cc6ccc([N+](=O)[O-])cc6)C(O)C(C)(C)C5CCC43C)C12` (stereo not drawn) [Compound 5], the 50% inhibitory concentration (IC50) with HCT-116 cells is 1.36 µM. As to `C=C(C)C1CCC2(COC(C)=O)CCC3(C)C(CCC4C5(C)CCC(OC6OC(CO)C(O)C(O)C6O)C(C)(C)C5CCC43C)C12` (stereo not drawn) [Compound 6], the IC50 in the data set on DLD-1 cells was 4.45 µM.

As for `C=C(C)[C@@H]1CC[C@]2(C(=O)OCC(N)(CO)CO)CC[C@]3(C)[C@H](CC[C@@H]4[C@@]5(C)CC[C@H](OC(C)=O)C(C)(C)[C@@H]5CC[C@]43C)[C@@H]12` [Compound 7], the IC50 in the data set with SW872 is 1.8 µM.
